Experimental data as given in patent US20020068367A1, “Linker and method for solid phase combinatorial synthesis” (priority 2000, published 2002).
“And” between values parts separate entries of the source, which are not always exact repeats. Equal entries are not always repeated.

Molecular target: T1, fluorescein-streptavidin (Streptomyces avidinii, UniProt P22629)
T1 construct: purchased Calbiochem-Novabiochem Corp., La Jolla, Calif; 189734
Assay: Fluorescence emission standard curve, streptavidin-fluorescein (evaluation of linker 3)
Conditions: for Fluorescence emission (standard curve): replicates
From the text: FIG. 8 is a plot of data from Table 8, derived from evaluation of linker 3;

T1 sequence (P22629 25-183): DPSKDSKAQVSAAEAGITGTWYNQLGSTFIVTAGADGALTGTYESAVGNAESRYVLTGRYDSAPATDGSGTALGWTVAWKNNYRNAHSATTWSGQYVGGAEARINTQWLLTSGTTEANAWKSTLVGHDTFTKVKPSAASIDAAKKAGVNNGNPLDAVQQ

O=C(CCCCCNC(=O)CCCCCNC(=O)CCCCC1SCC2NC(=O)NC21)NCCCCCNC(=O)CCCCCNC(=O)CCCCC1SCC2NC(=O)NC21 (stereo not shown) [Linker 3]
Fluorescence emission (standard curve), mean of Columns 1-3 ([ST/FL] 7.4 pmol): 150.37
Fluorescence emission (standard curve), sum of Columns 1-2 ([ST/FL] 7.4 pmol): 283.8
Fluorescence emission (standard curve), sum of Columns 1-3 ([ST/FL] 7.4 pmol): 451.1
Fluorescence emission (standard curve) ([ST/FL] 7.4 pmol): 112.81 and 170.99 and 167.3
Fluorescence emission (standard curve), mean of Columns 1-3 ([ST/FL] 11.0 pmol): 245.76
Fluorescence emission (standard curve), sum of Columns 1-2 ([ST/FL] 11.0 pmol): 498.27
Fluorescence emission (standard curve), sum of Columns 1-3 ([ST/FL] 11.0 pmol): 737.28
Fluorescence emission (standard curve) ([ST/FL] 11.0 pmol): 270.54 and 227.73 and 239.01
Fluorescence emission (standard curve), mean of Columns 1-3 ([ST/FL] 15.0 pmol): 281.62
Fluorescence emission (standard curve), sum of Columns 1-2 ([ST/FL] 15.0 pmol): 566.42
Fluorescence emission (standard curve), sum of Columns 1-3 ([ST/FL] 15.0 pmol): 844.85
Fluorescence emission (standard curve) ([ST/FL] 15.0 pmol): 307.82 and 258.6 and 278.43
Fluorescence emission (standard curve), mean of Columns 1-3 ([ST/FL] 18.0 pmol): 311.00
Fluorescence emission (standard curve), sum of Columns 1-2 ([ST/FL] 18.0 pmol): 633.01
Fluorescence emission (standard curve), sum of Columns 1-3 ([ST/FL] 18.0 pmol): 933.0
Fluorescence emission (standard curve) ([ST/FL] 18.0 pmol): 361.66 and 271.35 and 299.99
Fluorescence emission (standard curve), mean of Columns 1-3 ([ST/FL] 22.0 pmol): 350.48
Fluorescence emission (standard curve), sum of Columns 1-2 ([ST/FL] 22.0 pmol): 723.72
Fluorescence emission (standard curve), sum of Columns 1-3 ([ST/FL] 22.0 pmol): 1051.4
Fluorescence emission (standard curve) ([ST/FL] 22.0 pmol): 363.91 and 359.81 and 327.71
Fluorescence emission (standard curve), mean of Columns 1-3 ([ST/FL] 26.0 pmol): 461.85
Fluorescence emission (standard curve), sum of Columns 1-2 ([ST/FL] 26.0 pmol): 944.08
Fluorescence emission (standard curve), sum of Columns 1-3 ([ST/FL] 26.0 pmol): 1385.6
Fluorescence emission (standard curve) ([ST/FL] 26.0 pmol): 496.71 and 447.37 and 441.48
Fluorescence emission (standard curve), mean of Columns 1-3 ([ST/FL] 29.0 pmol): 472.31
Fluorescence emission (standard curve), sum of Columns 1-2 ([ST/FL] 29.0 pmol): 1001.7
Fluorescence emission (standard curve), sum of Columns 1-3 ([ST/FL] 29.0 pmol): 1416.9
Fluorescence emission (standard curve) ([ST/FL] 29.0 pmol): 495.93 and 505.81 and 415.18
Fluorescence emission (standard curve), mean of Columns 1-3 ([ST/FL] 36.0 pmol): 567.49
Fluorescence emission (standard curve), sum of Columns 1-2 ([ST/FL] 36.0 pmol): 1141.1
Fluorescence emission (standard curve), sum of Columns 1-3 ([ST/FL] 36.0 pmol): 1702.5
Fluorescence emission (standard curve) ([ST/FL] 36.0 pmol): 569.16 and 571.94 and 561.36
Fluorescence emission (standard curve), mean of Columns 1-3 ([ST/FL] 45.0 pmol): 697.34
Fluorescence emission (standard curve), sum of Columns 1-2 ([ST/FL] 45.0 pmol): 1374.6
Fluorescence emission (standard curve), sum of Columns 1-3 ([ST/FL] 45.0 pmol): 2092.0
Fluorescence emission (standard curve) ([ST/FL] 45.0 pmol): 688.65 and 685.98 and 717.4
Fluorescence emission (standard curve), mean of Columns 1-3 ([ST/FL] 60.0 pmol): 847.26
Fluorescence emission (standard curve), sum of Columns 1-2 ([ST/FL] 60.0 pmol): 1651.9
Fluorescence emission (standard curve), sum of Columns 1-3 ([ST/FL] 60.0 pmol): 2541.8
Fluorescence emission (standard curve) ([ST/FL] 60.0 pmol): 837.57 and 816.34 and 889.88
